ChEMBL document CHEMBL1201862, “PubChem BioAssay data set” (2004)
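Growth conditions: 96-well plates. Treatment: test compound, 48 hours, 5 concentrations. Analysis: linear interpolation between bracketing concentrations; unreached endpoints set to highest concentration. Here, GI50 denotes the concentration required for 50% inhibition of growth.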 Active and inactive are the calls of the source. No stated cut-off is given here; in the data, active = GI50 up to about 1.1 µM and inactive = higher.

What was measured:
Test in all cases: DTP human tumour cell line panel, 48 h
CAKI-1 = tested on: CAKI-1
COLO 205 = tested on: COLO 205
DU-145 = tested on: DU-145
HCT-15 = tested on: HCT-15
HL-60 = tested on: HL-60
Hs-578T = tested on: Hs-578T
IGROV-1 = tested on: IGROV-1
KM12 = tested on: KM12
MDA-N = tested on: MDA-N
NCI-H522 = tested on: NCI-H522
OVCAR-3 = tested on: OVCAR-3
RPMI-8226 = tested on: RPMI-8226
RXF 393 = tested on: RXF 393
SF-268 = tested on: SF-268
SK-MEL-5 = tested on: SK-MEL-5
SN12C = tested on: SN12C
SR = tested on: SR
SW-620 = tested on: SW-620
TK-10 = tested on: TK-10

Row | SMILES | GI50 (CAKI-1) | GI50 (COLO 205) | GI50 (DU-145) | GI50 (HCT-15) | GI50 (HL-60) | GI50 (Hs-578T) | GI50 (IGROV-1) | GI50 (KM12) | GI50 (MDA-N) | GI50 (NCI-H522) | GI50 (OVCAR-3) | GI50 (RPMI-8226) | GI50 (RXF 393) | GI50 (SF-268) | GI50 (SK-MEL-5) | GI50 (SN12C) | GI50 (SR) | GI50 (SW-620) | GI50 (TK-10)
1 | CCOc1cc(NC(C)=O)ccc1C(=O)NNS(=O)(=O)c1ccc(NC(C)=O)cc1 | 54.6 µM (inactive) | 24.7 µM (inactive) | > 100 µM (inactive) | 53.6 µM | 22.8 µM (inactive) | 41.7 µM (inactive) | 43.9 µM (inactive) | 41.5 µM (inactive) | 16.7 µM (inactive) | 37.4 µM (inactive) | 34.6 µM (inactive) | 31.7 µM (inactive) | 76.7 µM (inactive) | 88.7 µM (inactive) | 22.3 µM (inactive) | 46.5 µM (inactive) | 13.6 µM (inactive) | 39.2 µM (inactive) | 
2 | COc1ccc(-c2cc(-c3cc(F)c(Cl)cc3Cl)on2)cc1OC | 45 µM (inactive) | 17.4 µM (inactive) | 37.1 µM (inactive) | 5.42 µM | 4.48 µM (inactive) | 67.1 µM (inactive) | 68.1 µM (inactive) | 14.3 µM (inactive) | 2.44 µM (inactive) | 15.6 µM (inactive) | 11.8 µM (inactive) | 34.7 µM (inactive) | 8.07 µM (inactive) | 34 µM (inactive) | 9.51 µM (inactive) | 32.4 µM (inactive) | 1.16 µM (inactive) | 7.93 µM (inactive) | 49.5 µM (inactive)
3 | CCOC(=O)/C=C(\C(=O)OCC)n1ccc(=O)n(Cc2cn(CCCCOC(C)=O)nn2)c1=O | 4.25 µM (inactive) | 2.89 µM (inactive) | 20.5 µM (inactive) | 7.01 µM | 0.26 µM (active) | 22.7 µM (inactive) | 19.5 µM (inactive) | 16 µM (inactive) | 19.5 µM (inactive) | 1.72 µM (inactive) | 12.7 µM (inactive) | 8.65 µM (inactive) | 12 µM (inactive) | 17.7 µM (inactive) | 20.5 µM (inactive) | 15.2 µM (inactive) | 10.1 µM (inactive) | 3.14 µM (inactive) | 6.4 µM (inactive)
4 | O=c1ccc2cc(O)c(O)cc2o1 [ESCULETIN] | > 100 µM (inactive) | > 100 µM (inactive) | > 100 µM (inactive) | > 100 µM | > 100 µM (inactive) | > 100 µM (inactive) | > 100 µM (inactive) | > 100 µM (inactive) | > 100 µM (inactive) | > 100 µM (inactive) | > 100 µM (inactive) | > 100 µM (inactive) | > 100 µM (inactive) | > 100 µM (inactive) | > 100 µM (inactive) | > 100 µM (inactive) | > 100 µM (inactive) | > 100 µM (inactive) | > 100 µM (inactive)
5 | O=c1[nH]n(Cc2ccccc2)c2ccc([N+](=O)[O-])cc12 | 59.2 µM (inactive) | > 100 µM (inactive) | > 100 µM (inactive) | 56.1 µM | 33.8 µM (inactive) | 35.2 µM (inactive) | 84.3 µM (inactive) | 64.4 µM (inactive) | 29.2 µM (inactive) | 65.5 µM (inactive) | > 100 µM (inactive) | 48.5 µM (inactive) | 71.9 µM (inactive) | > 100 µM (inactive) | 46.9 µM (inactive) | 49.5 µM (inactive) | 69.7 µM (inactive) | 48.9 µM (inactive) | > 100 µM (inactive)
6 | CC[C@@H](/C=C\CCC1(C[C@H](O)CCC=C(C)C)OCCO1)O[Si](C(C)C)(C(C)C)C(C)C | 28.6 µM (inactive) | 19.8 µM (inactive) | 30 µM (inactive) | 20.1 µM | 16.7 µM (inactive) | 37.3 µM (inactive) | 20.9 µM (inactive) | 37.1 µM (inactive) | 33.5 µM (inactive) | 20.2 µM (inactive) | 19 µM (inactive) | 18.4 µM (inactive) | 17.3 µM (inactive) | 21.6 µM (inactive) | 17.8 µM (inactive) | 18 µM (inactive) | 21.2 µM (inactive) | 26.4 µM (inactive) | 20.6 µM (inactive)
7 | COC(=O)C(Cc1ccccc1)NP(=O)(O)OCC1OC(n2cc(F)c(=O)[nH]c2=O)CC1O (stereo unspecified) | 3.72 µM (inactive) | 74 µM (inactive) | 9.79 µM (inactive) | > 100 µM | 10.5 µM (inactive) | > 82.8 µM (inactive) | > 22.5 µM (inactive) | > 100 µM (inactive) | > 69 µM (inactive) | > 100 µM (inactive) | > 100 µM (inactive) | > 79.6 µM (inactive) | > 100 µM (inactive) | 1.75 µM (inactive) | 15.3 µM (inactive) | 10.4 µM (inactive) | 2.54 µM (inactive) | > 100 µM (inactive) | > 100 µM (inactive)
8 | O=C(/C=C/c1ccc2c(c1)OCO2)Cc1nc2ncccc2[nH]c1=O | > 100 µM (inactive) | 70.3 µM (inactive) | > 100 µM (inactive) | 92.7 µM | > 100 µM (inactive) | 36.5 µM (inactive) | 94.6 µM (inactive) | 61.1 µM (inactive) | > 100 µM (inactive) | 60.7 µM (inactive) | > 100 µM (inactive) | > 100 µM (inactive) | 49.4 µM (inactive) | 49.7 µM (inactive) | > 100 µM (inactive) | > 100 µM (inactive) | 77.1 µM (inactive) | > 100 µM (inactive) | 42.8 µM (inactive)
